In patent US20220282271A1, “HERBICIDE RESISTANT PLANTS AND METHODS OF MAKING AND USING” (OFFICE OF INNOVATION ADVANCEMENT AND COMMERCIALIZATION, priority 2019, published 2022):
Like-named read-outs stand apart in the source and are kept apart here.

Key:
[1] = biological target: T1, recombinant variant E. indica PPO1 A212T (Eleusine indica, UniProt A0A6G5XNV7, A212T); experiment: In vitro PPO enzyme activity inhibition, variant PPO1 A212T; type: biochemical; settings: highest herbicide concentration 10^−5 M
[2] = test system: Eleusine indica biotypes (S, R1, R2); experiment: Herbicide rate screening assay (greenhouse, foliar-applied, visual injury); type: in vivo; settings: for I50, estimated rate required to reduce Eleusine indica biotype by 50% (Visual Control/Injury) / I90, estimated rate required to reduce Eleusine indica biotype by 90% (Visual Control/Injury): injury scores 14 days after treatment; for Parameter estimate a of sigmoidal model y = a/(1 + exp(−(x − x0)/b)) for percent injury / Parameter estimate b of sigmoidal model y = a/(1 + exp(−(x − x0)/b)) for percent injury / Parameter estimate x0 of sigmoidal model y = a/(1 + exp(−(x − x0)/b)) for percent injury: x = log-transformed herbicide rate (kg/ha), 14 DAT
Description: Three E. indica biotypes from different locations were used in this study. The R1 biotype was collected in Country Club of Virginia, Richmond, Va., and the R2 biotype was from River Bend Golf, New Bern, N.C. These two biotypes were previous confirmed resistant to preemergence application of oxadiazon, but have not been screened to other PPO inhibitors. The S biotype was collected from the Alabama Agricultural Experiment Station, Plant Breeding Unit, Tallassee, Ala., which was confirmed susceptible to PPO inhibitors. Seeds of the mature plants were harvested, air dried and stored in the 4° C. freezer until planted in the greenhouse.
Greenhouse conditions were 30±3° C. at day/night temperature and ˜70% average relative humidity. The E. indica seeds were placed on the soil surface and lightly covered with sand in 28 cm*20 cm flats and watered as needed daily to ensure germination. Two weeks after emergence, seedlings were separated and transplanted to in individual 10-cm pots (volumes=0.5 L). Pots were filled with surface horizon of Marvyn sandy loam (fine-loamy, kaolinitic, thermic Typic Kanhapludults) soil with pH 6.4 and 1.2% organic matter. The plants were irrigated three times daily for 2 min with overhead irrigation and fertilized once at one week after transplanting at approximately 50 kg N ha^−1 with Scott's Miracle-Gro All-Purpose fertilizer (The Scotts Miracle-Gro Co. Marysville, Ohio). Plants were 5-10 cm in height with 3-5 tillers in size at the time of herbicide treatment.
Herbicide treatments were foliar-applied at 280 L/ha using an enclosed spray chamber with a single 8002E nozzle (TeeJet Spray Systems Co, Wheaton, Ill.) at 32 PSI. Four herbicides were selected for the experiment: oxadiazon (Ronstar FLO, Bayer Environmental Sci., Research Triangle Park, N.C.), sulfentrazone (Dismiss, FMC Corporation, Philadelphia, Pa.), flumioxazin (Sureguard, Valent Corp., Walnut Creek, Calif.) and lactofen (Cobra, Valent Corp., Walnut Creek, Calif.). All the herbicides are from different herbicide chemical families of PPO inhibitors: oxadiazoles, triazolinone, N-phenylphthalimide and diphenyl ether, respectively. Herbicides were applied at 7 different rates based on each herbicide label rate: oxadiazon ranging from 0.14 to 8.96 kg/ha, sulfentrazone from 0.07 to 4.50 kg/ha, flumioxazin from 0.08 to 5.70 kg/ha, and lactofen from 0.029 to 1.75 kg/ha. A non-treated control (0 kg/ha) was included. 192 plants of each biotype were tested and experiments were conducted as completely random design, three replications for two runs.
The visual injury rating scores per plant at 14 days after treatment (DAT) were recorded, where the visual injury rating scores were based on a 0 to 100 scale, which 0 is equated to no phytotoxicity and 100 is equated to complete control. Data subjected to ANOVA analysis at a significance level of P<0.05 using the PROC GLM procedure of SAS 9.4 (SAS Institute Inc., Cary, N.C.). All the herbicide rates were log transformed to make equal spacing between the herbicide treatments in order to facilitate regression analysis. The non-treated control was transformed to equal spacing based on the log rates of each herbicide, respectively. Data were fitted to a sigmoidal model using SigmaPlot 10.2 (Systat Software Inc., London, UK) using a sigmoidal function (Equation 1).
y=a/(1+e^(−((x−x0)/b))) (1)
In this fit sigmoidal model, where y represents E. indica visual damage relative to non-treated control (%), x represents the log-transformed herbicide rates (kg/ha), three parameters (a, b, x0) represents the y intercept.

[3] = biological target: T2, recombinant wild-type E. indica PPO1 (Eleusine indica, UniProt A0A6G5XNV7); experiment: In vitro PPO enzyme activity inhibition, wild-type PPO1; type: biochemical; settings: for Wild-type E. indica PPO1 % inhibition / inhibition at 10 µM: highest herbicide concentration 10^−5 M
T2 sequence (A0A6G5XNV7 1-529): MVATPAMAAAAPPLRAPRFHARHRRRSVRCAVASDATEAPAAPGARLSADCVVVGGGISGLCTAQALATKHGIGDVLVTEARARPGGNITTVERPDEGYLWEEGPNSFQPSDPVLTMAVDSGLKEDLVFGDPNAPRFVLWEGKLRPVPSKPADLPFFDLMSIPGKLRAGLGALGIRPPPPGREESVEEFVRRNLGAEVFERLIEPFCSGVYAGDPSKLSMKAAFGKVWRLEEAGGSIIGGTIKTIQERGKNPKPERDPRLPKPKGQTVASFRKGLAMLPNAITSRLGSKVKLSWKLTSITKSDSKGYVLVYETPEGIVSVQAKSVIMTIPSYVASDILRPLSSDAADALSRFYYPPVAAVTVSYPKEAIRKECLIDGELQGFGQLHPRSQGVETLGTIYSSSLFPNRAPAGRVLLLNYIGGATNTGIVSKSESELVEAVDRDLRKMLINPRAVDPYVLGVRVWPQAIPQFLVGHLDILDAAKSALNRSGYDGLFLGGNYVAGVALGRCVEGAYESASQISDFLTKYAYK
Description: Effects of A212T substitution were studied using the E. indica backbone. The wild-type E. indica PPO1 and the E. indica PPO1 A212T variants were synthesized de novo and subcloned into pRSetB plasmid (Invitrogen, Carlsbad, Calif.). The complete description of expression and purification of E. indica PPO1 and E. indica PPO1 A212T variant proteins were referenced to the method described for PPO2 by Rangani et al. (2019, Frontiers in Plant Sci., 10:568). […] Oxadiazon, sulfentrazone, saflufenacil and lactofen are from the class of oxadiazole, triazolinone, pyrimidinedione, and diphenyl ether, respectively. Flumioxazin and trifludimoxazin are from the same chemical family, N-phenylphthalimide. […] The assay was replicated twice.

[4] = biological target: T1, recombinant variant E. indica PPO1 A212T; experiment: In vitro PPO enzyme activity inhibition, variant PPO1 A212T; type: biochemical; settings: for inhibition at 10 µM: read-out: Variant E. indica PPO1 A212T % inhibition
Description: Effects of A212T substitution were studied using the E. indica backbone. The wild-type E. indica PPO1 and the E. indica PPO1 A212T variants were synthesized de novo and subcloned into pRSetB plasmid (Invitrogen, Carlsbad, Calif.). The complete description of expression and purification of E. indica PPO1 and E. indica PPO1 A212T variant proteins were referenced to the method described for PPO2 by Rangani et al. (2019, Frontiers in Plant Sci., 10:568). Six PPO inhibitors, belonging to five different chemical families, were evaluated on the PPO enzyme activity at a concentrations ranging from 5.00×10^−5M to 5.12×10^−12M. Oxadiazon, sulfentrazone, saflufenacil and lactofen are from the class of oxadiazole, triazolinone, pyrimidinedione, and diphenyl ether, respectively. Flumioxazin and trifludimoxazin are from the same chemical family, N-phenylphthalimide. […] The assay was replicated twice.

T1 sequence (A0A6G5XNV7 entry or part of it A212T): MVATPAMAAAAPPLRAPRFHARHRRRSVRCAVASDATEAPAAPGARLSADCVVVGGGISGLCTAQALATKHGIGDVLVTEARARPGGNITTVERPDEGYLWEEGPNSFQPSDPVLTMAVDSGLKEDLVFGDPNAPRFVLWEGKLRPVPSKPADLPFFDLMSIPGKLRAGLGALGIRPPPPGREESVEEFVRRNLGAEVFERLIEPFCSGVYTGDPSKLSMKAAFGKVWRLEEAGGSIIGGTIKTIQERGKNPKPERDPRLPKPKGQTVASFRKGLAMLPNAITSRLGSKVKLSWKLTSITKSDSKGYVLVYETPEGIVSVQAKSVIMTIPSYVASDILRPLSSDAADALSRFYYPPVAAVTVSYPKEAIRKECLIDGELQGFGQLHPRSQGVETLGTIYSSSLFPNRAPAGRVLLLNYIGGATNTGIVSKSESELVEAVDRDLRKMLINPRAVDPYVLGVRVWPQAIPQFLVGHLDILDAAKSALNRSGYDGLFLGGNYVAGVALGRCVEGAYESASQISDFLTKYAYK

Structure (SMILES)	Variant E. indica PPO1 A212T % inhibition [1]	I50, estimated rate required to reduce Eleusine indica biotype by 50% (Visual Control/Injury) ([2]; R1 biotype)	I90, estimated rate required to reduce Eleusine indica biotype by 90% (Visual Control/Injury) ([2]; R1 biotype)	Parameter estimate a of sigmoidal model y = a/(1 + exp(−(x − x0)/b)) for percent injury ([2]; R1 biotype)	Parameter estimate b of sigmoidal model y = a/(1 + exp(−(x − x0)/b)) for percent injury ([2]; R1 biotype)	Parameter estimate x0 of sigmoidal model y = a/(1 + exp(−(x − x0)/b)) for percent injury ([2]; R1 biotype)	I50, estimated rate required to reduce Eleusine indica biotype by 50% (Visual Control/Injury) ([2]; R2 biotype)	I90, estimated rate required to reduce Eleusine indica biotype by 90% (Visual Control/Injury) ([2]; R2 biotype)	Parameter estimate a of sigmoidal model y = a/(1 + exp(−(x − x0)/b)) for percent injury ([2]; R2 biotype)	Parameter estimate b of sigmoidal model y = a/(1 + exp(−(x − x0)/b)) for percent injury ([2]; R2 biotype)	Parameter estimate x0 of sigmoidal model y = a/(1 + exp(−(x − x0)/b)) for percent injury ([2]; R2 biotype)	I50, estimated rate required to reduce Eleusine indica biotype by 50% (Visual Control/Injury) ([2]; S biotype)	I90, estimated rate required to reduce Eleusine indica biotype by 90% (Visual Control/Injury) ([2]; S biotype)	Parameter estimate a of sigmoidal model y = a/(1 + exp(−(x − x0)/b)) for percent injury ([2]; S biotype)	Parameter estimate b of sigmoidal model y = a/(1 + exp(−(x − x0)/b)) for percent injury ([2]; S biotype)	Parameter estimate x0 of sigmoidal model y = a/(1 + exp(−(x − x0)/b)) for percent injury ([2]; S biotype)	IC50 [3]	Wild-type E. indica PPO1 % inhibition [3]	inhibition at 10 µM [3]	IC50 [4]	other results
CCOC(=O)C(C)OC(=O)c1cc(Oc2ccc(C(F)(F)F)cc2Cl)ccc1[N+](=O)[O-] (centres unmarked) [Lactofen, lactofen]	>90%	0.04 kg ha^−1	0.51 kg ha^−1	84.65	0.29	−1.44	0.06 kg ha^−1	0.50 kg ha^−1	89.20	0.30	−1.31	0.03 kg ha^−1	0.17 kg ha^−1	90.29	0.13	−1.52	26.4 nM	>90%	> 90%	362 nM	inhibition at 10 µM [4]: > 90%
C#CCN1C(=O)COc2cc(F)c(N3C(=O)C4=C(CCCC4)C3=O)cc21 [Flumioxazin, flumioxazin]	>90%	0.08 kg ha^−1	0.10 kg ha^−1	96.53	0.04	−1.11	0.08 kg ha^−1	0.10 kg ha^−1	96.81	0.04	−1.11	0.08 kg ha^−1	0.09 kg ha^−1	98.00	0.02	−1.09	16.7 nM	>90%	> 90%	13.4 nM	inhibition at 10 µM [4]: > 90%
C#CCN1C(=O)C(F)(F)Oc2cc(F)c(-n3c(=O)n(C)c(=S)n(C)c3=O)cc21 [Trifludomoxazin, trifludimoxazin]	>90%	–	–	–	–	–	–	–	–	–	–	–	–	–	–	–	–	>90%	–	–	IC50 ([3]; recombinant enzyme, in vitro, read-out: Wild-type E. indica PPO1 sensitivity [IC50]): 17.1 nM; IC50 ([4]; recombinant enzyme, in vitro, read-out: Variant E. indica PPO1 A212T sensitivity [IC50]): 26.5 nM
Cc1nn(-c2cc(NS(C)(=O)=O)c(Cl)cc2Cl)c(=O)n1C(F)F [Sulfentrazone, sulfentrazone]	–	0.15 kg ha^−1	0.32 kg ha^−1	95.12	0.12	−0.84	0.18 kg ha^−1	0.63 kg ha^−1	100.90	0.25	−0.73	0.08 kg ha^−1	0.19 kg ha^−1	98.21	0.16	−1.10	275 nM	–	> 90%	1870 nM	inhibition at 10 µM [4]: 76%
